Values quoted from earlier work, collected in patent US20090215859A1, “Compositions and methods for modulating dhr96” (priority 2004, published 2009).

Legend:
[1] = system: DHR38; conditions: cultured larval organs; cited from earlier work
[2] = target: T1, GAL4-USP fusion protein (Drosophila melanogaster, UniProt P20153+P34021); conditions: dependent on its EcR partner; cited from earlier work
T1 construct: host or cells: tissues dissected from transgenic Drosophila larvae
T1 sequence (P20153 239-498 limits assumed): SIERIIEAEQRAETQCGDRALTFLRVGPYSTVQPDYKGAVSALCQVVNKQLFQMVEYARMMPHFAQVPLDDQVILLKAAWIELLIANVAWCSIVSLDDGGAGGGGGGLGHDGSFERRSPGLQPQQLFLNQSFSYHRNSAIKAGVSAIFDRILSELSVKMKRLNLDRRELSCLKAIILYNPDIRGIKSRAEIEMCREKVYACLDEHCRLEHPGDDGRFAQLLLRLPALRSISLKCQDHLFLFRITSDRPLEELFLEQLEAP
T1 sequence (P34021 1-878): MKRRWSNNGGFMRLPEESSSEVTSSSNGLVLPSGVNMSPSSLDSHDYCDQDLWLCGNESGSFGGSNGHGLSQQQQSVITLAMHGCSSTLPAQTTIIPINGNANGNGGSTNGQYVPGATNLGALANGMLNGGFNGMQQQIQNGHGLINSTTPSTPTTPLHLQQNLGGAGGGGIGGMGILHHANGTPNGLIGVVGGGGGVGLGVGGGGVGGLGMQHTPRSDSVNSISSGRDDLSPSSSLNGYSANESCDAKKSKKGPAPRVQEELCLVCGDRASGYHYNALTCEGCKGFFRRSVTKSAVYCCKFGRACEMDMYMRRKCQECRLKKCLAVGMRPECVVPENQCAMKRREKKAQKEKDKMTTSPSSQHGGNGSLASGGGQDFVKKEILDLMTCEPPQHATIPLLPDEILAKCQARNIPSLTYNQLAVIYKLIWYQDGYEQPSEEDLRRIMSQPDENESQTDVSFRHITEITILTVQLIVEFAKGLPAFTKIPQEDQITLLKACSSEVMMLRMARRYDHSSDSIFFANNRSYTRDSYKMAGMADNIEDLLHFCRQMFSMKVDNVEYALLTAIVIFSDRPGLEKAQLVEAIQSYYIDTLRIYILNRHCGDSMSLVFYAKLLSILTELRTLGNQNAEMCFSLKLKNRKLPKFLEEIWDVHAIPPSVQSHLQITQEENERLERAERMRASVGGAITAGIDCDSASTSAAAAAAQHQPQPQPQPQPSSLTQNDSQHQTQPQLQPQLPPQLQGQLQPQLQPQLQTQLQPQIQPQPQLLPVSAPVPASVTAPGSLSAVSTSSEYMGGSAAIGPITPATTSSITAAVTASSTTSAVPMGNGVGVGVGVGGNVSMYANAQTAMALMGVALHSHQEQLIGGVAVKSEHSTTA

[3] = target: T2, PXR (Homo sapiens, UniProt O75469); conditions: cited from earlier work
T2 sequence (O75469 1-434): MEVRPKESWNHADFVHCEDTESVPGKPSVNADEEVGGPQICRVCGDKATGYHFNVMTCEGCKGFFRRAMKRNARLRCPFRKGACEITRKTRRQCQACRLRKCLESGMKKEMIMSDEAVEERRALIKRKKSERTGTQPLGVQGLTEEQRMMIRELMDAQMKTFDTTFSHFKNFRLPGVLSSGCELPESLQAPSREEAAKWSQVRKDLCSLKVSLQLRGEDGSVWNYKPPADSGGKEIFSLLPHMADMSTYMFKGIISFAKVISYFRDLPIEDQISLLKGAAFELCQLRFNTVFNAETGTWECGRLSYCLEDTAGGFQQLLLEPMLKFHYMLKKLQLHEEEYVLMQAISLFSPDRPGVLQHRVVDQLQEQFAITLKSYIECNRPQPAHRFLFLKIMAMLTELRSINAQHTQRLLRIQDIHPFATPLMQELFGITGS

Structure (SMILES) | Activation of DHR38 in the GAL4-LBD system [1] | Activation of the GAL4-USP fusion protein [2] | Action on PXR [3]
CC(C)(O)CC[C@@H](O)[C@](C)(O)[C@H]1CC[C@@]2(O)C3=CC(=O)[C@@H]4C[C@@H](O)[C@@H](O)C[C@]4(C)[C@H]3CC[C@]12C [20-hydroxyecdysone] | not | potent activator | 
COc1cc2c(cc1O)CCN[C@]21CS[C@@H]2c3c(OC(C)=O)c(C)c4c(c3[C@H](COC1=O)N1[C@@H]2[C@H]2c3c(cc(C)c(OC)c3O)C[C@@H]([C@@H]1O)N2C)OCO4 [ecteinascidin-743] |  |  | antagonist
